Assay results reported in PMC6017481, “Design, Synthesis, and Biological Evaluation of 2-(Benzylamino-2-Hydroxyalkyl)Isoindoline-1,3-Diones Derivatives as Potential Disease-Modifying Multifunctional Anti-Alzheimer Agents” (Molecules : A Journal of Synthetic Chemistry and Natural …, 2018).
Read-outs that look alike come from different tables or passages of the source.

Key:
[1] = biological target: T1, eeAChE (AChE from Electrophorus electricus) (Electrophorus electricus, UniProt O42275); test: biochemical; conditions: for inhibition at 10 µM: at 10 μM inhibitor concentration, mean ± SD, read-out: eeAChE % Inh.; for IC50: AChE from electric eel, mean ± SEM, at least three experiments
T1 construct: purchased Sigma-Aldrich

[2] = biological target: T2, human recombinant BACE-1 (hBACE-1) (Homo sapiens, UniProt P56817); test: BACE-1 FRET assay (PanVera kit); format: biochemical; conditions: at 50 μM inhibitor concentration; mean ± SD; read-out: hBACE-1 % Inh.
T2 construct: purchased PanVera BACE-1 FRET Assay Kit, bought from Life Technologies Polska Sp. z o.o; host or cells: baculovirus expression

[3] = biological target: T3, Aβ1–42 peptide aggregation (Homo sapiens, UniProt P05067); test: Thioflavin T-based fluorometric assay of Aβ aggregation; format: biochemical; conditions: read-out: Aβ-Aggr. % Inh.
T3 construct: Recombinant human HFIP-pretreated Aβ1–42 peptide; purchased Merck Millipore, Darmstadt, Germany

[4] = biological target: eqBuChE (BuChE from equine serum) (Equus caballus, UniProt P81908); test: biochemical; conditions: for inhibition at 10 µM: at 10 μM inhibitor concentration, mean ± SD, read-out: eqBuChE % Inh.
Aβ aggregation = system: Aβ aggregation; set-up: method as in PMID 25621991; conditions: at 10 μM; cited from earlier work
human AChE = system: human AChE; set-up: method as in PMID 25621991; conditions: cited from earlier work
Aβ toxicity = system: Aβ toxicity; set-up: method as in PMID 25621991; conditions: at 1 μM and 3 μM; cited from earlier work
[5] = at 10 μM inhibitor concentration, 1.5 μM Aβ1–42, mean ± SD

T3 sequence (P05067 672-713 limits assumed): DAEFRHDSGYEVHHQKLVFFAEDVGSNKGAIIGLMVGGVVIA
T1 sequence (O42275 24-633): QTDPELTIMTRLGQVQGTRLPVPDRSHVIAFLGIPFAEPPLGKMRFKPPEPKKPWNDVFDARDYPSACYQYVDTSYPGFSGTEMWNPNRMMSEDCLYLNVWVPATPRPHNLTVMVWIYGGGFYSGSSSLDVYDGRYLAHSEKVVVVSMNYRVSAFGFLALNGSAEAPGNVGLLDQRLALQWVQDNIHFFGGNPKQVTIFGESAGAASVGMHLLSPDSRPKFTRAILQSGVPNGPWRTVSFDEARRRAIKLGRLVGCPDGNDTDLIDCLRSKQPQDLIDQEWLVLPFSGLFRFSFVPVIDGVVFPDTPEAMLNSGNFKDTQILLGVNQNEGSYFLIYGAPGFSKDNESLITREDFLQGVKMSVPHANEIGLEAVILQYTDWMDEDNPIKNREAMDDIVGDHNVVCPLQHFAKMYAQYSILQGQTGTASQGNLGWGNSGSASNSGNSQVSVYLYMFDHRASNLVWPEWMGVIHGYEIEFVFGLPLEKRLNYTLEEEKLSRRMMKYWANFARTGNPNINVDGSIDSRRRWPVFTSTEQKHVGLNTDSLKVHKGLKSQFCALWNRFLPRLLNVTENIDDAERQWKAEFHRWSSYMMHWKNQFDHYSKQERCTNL
T2 sequence (P56817 46-501): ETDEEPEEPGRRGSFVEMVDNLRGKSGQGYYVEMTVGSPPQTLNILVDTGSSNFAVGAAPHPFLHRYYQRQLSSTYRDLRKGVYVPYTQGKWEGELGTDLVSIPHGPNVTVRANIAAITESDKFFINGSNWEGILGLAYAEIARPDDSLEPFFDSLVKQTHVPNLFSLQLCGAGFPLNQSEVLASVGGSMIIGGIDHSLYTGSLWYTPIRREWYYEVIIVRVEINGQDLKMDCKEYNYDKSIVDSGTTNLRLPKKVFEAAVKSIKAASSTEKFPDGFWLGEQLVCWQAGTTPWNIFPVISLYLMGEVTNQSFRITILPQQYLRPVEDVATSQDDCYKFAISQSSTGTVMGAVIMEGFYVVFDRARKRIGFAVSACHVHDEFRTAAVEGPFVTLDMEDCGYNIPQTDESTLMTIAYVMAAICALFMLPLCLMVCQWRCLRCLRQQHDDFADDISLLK
Sequence of eqBuChE (BuChE from equine serum) (P81908 whole entry): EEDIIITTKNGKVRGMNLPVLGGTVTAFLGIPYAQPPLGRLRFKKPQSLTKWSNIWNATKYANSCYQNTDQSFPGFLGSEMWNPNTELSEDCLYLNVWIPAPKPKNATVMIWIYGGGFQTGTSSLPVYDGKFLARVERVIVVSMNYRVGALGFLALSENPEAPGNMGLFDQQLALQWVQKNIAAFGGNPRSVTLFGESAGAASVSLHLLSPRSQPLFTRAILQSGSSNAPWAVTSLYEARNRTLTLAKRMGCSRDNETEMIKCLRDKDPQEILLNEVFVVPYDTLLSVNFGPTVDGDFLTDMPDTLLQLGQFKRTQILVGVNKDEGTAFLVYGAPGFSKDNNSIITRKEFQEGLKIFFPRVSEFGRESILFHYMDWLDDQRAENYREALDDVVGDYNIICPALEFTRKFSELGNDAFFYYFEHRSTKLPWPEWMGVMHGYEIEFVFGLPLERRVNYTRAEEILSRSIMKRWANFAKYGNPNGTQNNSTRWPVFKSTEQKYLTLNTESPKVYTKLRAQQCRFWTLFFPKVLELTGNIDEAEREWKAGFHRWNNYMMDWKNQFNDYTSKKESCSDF

What does the source list for `O=C1c2ccccc2C(=O)N1CC(O)CNCc1ccccc1` (centres unmarked) [Compound 1, 2-(3-(Benzylamino)-2-hydroxypropyl)isoindoline-1,3-dione]?
inhibition at 10 µM [1]: 11.5%; inhibition at 50 µM [2]: 37.3%; inhibition at 10 µM [3, 5]: < 10%; inhibition at 10 µM [4]: 14.1%

Which inhibition at 10 µM [1] does the source give for `O=C1c2ccccc2C(=O)N1CC(O)CNCc1ccccc1F` (centres unmarked) [Compound 2, 2-(3-((2-Fluorobenzyl)amino)-2-hydroxypropyl)isoindoline-1,3-dione] here?
Its inhibition at 10 µM is 28.1%.

And the inhibition at 50 µM [2]?
The inhibition at 50 µM was 39.6%.

What about the inhibition at 10 µM [3, 5] of the same molecule?
The inhibition at 10 µM was 21.1%.

And the inhibition at 10 µM [4]?
The inhibition at 10 µM was 19.5%.

Which inhibition at 10 µM [1] does the source give for `O=C1c2ccccc2C(=O)N1CC(O)CNCc1ccccc1C(F)(F)F` (centres unmarked) [Compound 3, 2-(2-Hydroxy-3-((2-(trifluoromethyl)benzyl)amino)propyl)isoindoline-1,3-dione] here?
Its inhibition at 10 µM is 11.8%.

What about the inhibition at 50 µM [2] of the same molecule?
Its inhibition at 50 µM is 41.8%.

What about the inhibition at 10 µM [3, 5] of the same molecule?
The inhibition at 10 µM was less than 10%.

And the inhibition at 10 µM [4]?
Its inhibition at 10 µM is less than 10%.

What does the source list for `O=C1c2ccccc2C(=O)N1CC(O)CNCc1cccc(Cl)c1` (centres unmarked) [Compound 4, 2-(3-((3-Chlorobenzyl)amino)-2-hydroxypropyl)isoindoline-1,3-dione]?
inhibition at 10 µM [1]: < 10%; inhibition at 50 µM [2]: 34.1%; inhibition at 10 µM [3, 5]: < 10%; inhibition at 10 µM [4]: 24.1%

With `COc1ccccc1CNCC(O)CN1C(=O)c2ccccc2C1=O` (centres unmarked) [Compound 5, 2-(2-Hydroxy-3-((2-methoxybenzyl)amino)propyl)isoindoline-1,3-dione] as the molecule, how does the inhibition at 10 µM [1] read?
The inhibition at 10 µM was less than 10%.

And the inhibition at 50 µM [2]?
The inhibition at 50 µM was 39.2%.

And the inhibition at 10 µM [3, 5]?
The inhibition at 10 µM was 19.9%.

And the IC50 ([4]; BuChE from horse serum, mean ± SEM, at least three experiments)?
The IC50 was 7.86 ± 0.29 µM.

Which inhibition at 10 µM [1] does the source give for `Cc1ccc(CNCC(O)CN2C(=O)c3ccccc3C2=O)cc1` (centres unmarked) [Compound 6, 2-(2-Hydroxy-3-((4-methylbenzyl)amino)propyl)isoindoline-1,3-dione] here?
The inhibition at 10 µM was less than 10%.

And the inhibition at 50 µM [2]?
Its inhibition at 50 µM is 45%.

What about the inhibition at 10 µM [3, 5] of the same molecule?
Its inhibition at 10 µM is less than 10%.

And the inhibition at 10 µM [4]?
Its inhibition at 10 µM is 11.6%.

Which results are given for `COc1ccc(CNCC(O)CN2C(=O)c3ccccc3C2=O)cc1` (centres unmarked) [Compound 7, 2-(2-Hydroxy-3-((4-methoxybenzyl)amino)propyl)isoindoline-1,3-dione]?
inhibition at 10 µM [1]: < 10%; inhibition at 50 µM [2]: 35.1%; inhibition at 10 µM [3, 5]: < 10%; inhibition at 10 µM [4]: 19.1%

Which inhibition at 10 µM [1] does the source give for `O=C1c2ccccc2C(=O)N1CC(O)CNCc1ccc(Cl)cc1Cl` (centres unmarked) [Compound 8, 2-(3-((2,4-Dichlorobenzyl)amino)-2-hydroxypropyl)isoindoline-1,3-dione] here?
Its inhibition at 10 µM is less than 10%.

What about the inhibition at 50 µM [2] of the same molecule?
The inhibition at 50 µM was 37.2%.

And the inhibition at 10 µM [3, 5]?
Its inhibition at 10 µM is less than 10%.

What about the inhibition at 10 µM [4] of the same molecule?
The inhibition at 10 µM was 21.7%.

For `O=C1c2ccccc2C(=O)N1CCC(O)CNCc1ccccc1` (centres unmarked) [Compound 9, 2-(4-(Benzylamino)-3-hydroxybutyl)isoindoline-1,3-dione], which inhibition at 10 µM [1] is on record?
The inhibition at 10 µM was less than 10%.

What about the inhibition at 50 µM [2] of the same molecule?
Its inhibition at 50 µM is less than 10%.

What about the inhibition at 10 µM [3, 5] of the same molecule?
The inhibition at 10 µM was less than 10%.

And the inhibition at 10 µM [4]?
Its inhibition at 10 µM is less than 10%.

Which inhibition at 10 µM [1] does the source give for `COc1ccccc1CNCC(O)CCN1C(=O)c2ccccc2C1=O` (centres unmarked) [Compound 10, 2-(3-Hydroxy-4-((2-methoxybenzyl)amino)butyl)isoindoline-1,3-dione] here?
Its inhibition at 10 µM is 32.7%.

And the inhibition at 50 µM [2]?
Its inhibition at 50 µM is 24.4%.

And the inhibition at 10 µM [3, 5]?
The inhibition at 10 µM was less than 10%.

And the inhibition at 10 µM [4]?
The inhibition at 10 µM was 17.8%.

Which inhibition at 10 µM [1] does the source give for `COc1ccc(CNCC(O)CCN2C(=O)c3ccccc3C2=O)cc1` (centres unmarked) [Compound 11, 2-(3-Hydroxy-4-((4-methoxybenzyl)amino)butyl)isoindoline-1,3-dione] here?
Its inhibition at 10 µM is less than 10%.

And the inhibition at 50 µM [2]?
The inhibition at 50 µM was 34.8%.

What about the inhibition at 10 µM [3, 5] of the same molecule?
Its inhibition at 10 µM is less than 10%.

What about the inhibition at 10 µM [4] of the same molecule?
Its inhibition at 10 µM is less than 10%.

With `O=C1c2ccccc2C(=O)N1CCCC(O)CNCc1ccccc1` (centres unmarked) [Compound 12, 2-(5-(Benzylamino)-4-hydroxypentyl)isoindoline-1,3-dione] as the molecule, how does the IC50 [1] read?
The IC50 was 3.32 ± 0.15 µM.

And the inhibition at 50 µM [2]?
Its inhibition at 50 µM is 43.7%.

What about the inhibition at 10 µM [3, 5] of the same molecule?
Its inhibition at 10 µM is 24.9%.

What about the inhibition at 10 µM [4] of the same molecule?
The inhibition at 10 µM was 14.1%.

Which results are given for `COc1ccccc1CNCC(O)CCCN1C(=O)c2ccccc2C1=O` (centres unmarked) [Compound 13, 2-(4-Hydroxy-5-((2-methoxybenzyl)amino)pentyl)isoindoline-1,3-dione]?
IC50 [1]: 11.1 ± 0.49 µM; inhibition at 50 µM [2]: 37.1%; inhibition at 10 µM [3, 5]: < 10%; inhibition at 10 µM [4]: 26.2%

Which results are given for `O=C1c2ccccc2C(=O)N1CCCCC(O)CNCc1ccccc1` (centres unmarked) [Compound 14, 2-(6-(Benzylamino)-5-hydroxyhexyl)isoindoline-1,3-dione]?
IC50 [1]: 2.13 ± 0.07 µM; inhibition at 50 µM [2]: 42.1%; inhibition at 10 µM [3, 5]: < 10%; inhibition at 10 µM [4]: 36%

For `COc1ccccc1CNCC(O)CCCCN1C(=O)c2ccccc2C1=O` (centres unmarked) [Compound 15, 2-(5-Hydroxy-6-((2-methoxybenzyl)amino)hexyl)isoindoline-1,3-dione], which IC50 [1] is on record?
Its IC50 is 1.95 ± 0.06 µM.

And the inhibition at 50 µM [2]?
Its inhibition at 50 µM is 15.7%.

And the inhibition at 10 µM [3, 5]?
Its inhibition at 10 µM is less than 10%.

And the inhibition at 10 µM [4]?
Its inhibition at 10 µM is 36%.

What does the source list for `O=C1c2ccccc2C(=O)N1CCCCCNCc1ccc(F)cc1` [Compound III, 2-(5-(4-flurobenzylamino)pentyl)isoindoline-1,3-dione]?
anti-Aβ aggregation activity (Aβ aggregation): 66%; IC50 (human AChE): 0.268 µM; neuroprotective effect against Aβ toxicity (Aβ toxicity): neuroprotective effect

For `COc1cc2c(cc1OC)C(=O)C(CC1CCN(Cc3ccccc3)CC1)C2` (centres unmarked) [Donepezil, reference compound], which inhibition at 10 µM [3] is on record?
Its inhibition at 10 µM is 13.8%.

Which inhibition at 10 µM [3, 5] does the source give for `Oc1ccc(/C=C/c2cc(O)cc(O)c2)cc1` [Resveratrol, reference compound] here?
The inhibition at 10 µM was 78.5%.
